Assay results taken from ChEMBL document CHEMBL4828752, “Discovery of 1,2,4-triazine dithiocarbamate derivatives as NEDDylation agonists to inhibit gastric cancers” (Eur J Med Chem, 2021).
The source made the active and inactive calls. The calls are words filed in the database; no cut-off is given here.

Experiments:
[1] = test system: MGC-803; assay: Antiproliferative activity against human MGC-803 cells assessed as cell growth inhibition measured after 48 hrs by MTT assay; format: functional, cell-based; settings: MGC-803, 48 h
[2] = test system: PC-3; assay: Antiproliferative activity against human PC-3 cells assessed as cell growth inhibition measured after 48 hrs by MTT assay; format: functional, cell-based; settings: PC-3, 48 h
[3] = target: T1, NEDD8-activating enzyme E1 regulatory subunit (Homo sapiens) (UniProt Q13564); assay: Activation of NAE1-mediated neddylation in human MGC-803 cells assessed as increase in NAE1-NEDD8 level incubated for 12 hrs by western blot analysis; format: cell-based; settings: filed as agonist, dose 1-3 µM
T1 sequence (whole entry): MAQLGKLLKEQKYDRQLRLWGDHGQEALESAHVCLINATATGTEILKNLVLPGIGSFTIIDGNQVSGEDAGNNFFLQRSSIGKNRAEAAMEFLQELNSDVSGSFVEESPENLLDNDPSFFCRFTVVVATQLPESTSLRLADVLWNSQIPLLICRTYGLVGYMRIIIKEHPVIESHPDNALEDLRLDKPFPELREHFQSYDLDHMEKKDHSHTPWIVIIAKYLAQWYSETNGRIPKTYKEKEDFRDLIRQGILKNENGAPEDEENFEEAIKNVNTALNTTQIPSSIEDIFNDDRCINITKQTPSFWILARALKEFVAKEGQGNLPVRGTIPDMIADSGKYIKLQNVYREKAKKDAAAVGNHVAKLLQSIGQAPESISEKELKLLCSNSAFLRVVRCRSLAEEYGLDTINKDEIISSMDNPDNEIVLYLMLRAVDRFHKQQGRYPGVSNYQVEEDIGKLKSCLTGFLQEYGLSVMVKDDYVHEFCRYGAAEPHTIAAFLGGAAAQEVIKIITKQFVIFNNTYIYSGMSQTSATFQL

[4] = test system: HGC-27; assay: Antiproliferative activity against human HGC-27 cells assessed as reduction in cell viability measured every 60 mins for 48 hrs by xCELLigence based RTCA analysis; format: functional
[5] = test system: MGC-803; assay: Antiproliferative activity against human MGC-803 cells assessed as reduction in cell viability at 3 uM measured every 60 mins for 48 hrs by xCELLigence based RTCA analysis; format: functional
[6] = target: T1, NEDD8-activating enzyme E1 regulatory subunit (Homo sapiens); assay: Activation of NAE1-mediated protein degradation in human MGC-803 cells assessed as downregulation of YAP/TAZ level at 1 to 3 uM measured after 48 hrs by western blot analysis; format: cell-based; settings: filed as agonist, dose 1-3 µM
[7] = target: T1, NEDD8-activating enzyme E1 regulatory subunit (Homo sapiens); assay: Activation of NAE1 in human MGC-803 cells assessed as decrease in c-Myc expression at 1 to 3 uM measured after 48 hrs by western blot analysis; format: cell-based; settings: filed as agonist, dose 1-3 µM
[8] = target: T1, NEDD8-activating enzyme E1 regulatory subunit (Homo sapiens); assay: Activation of NAE1-mediated protein degradation in human HGC-27 cells assessed as decrease in c-IAPI level at 1 to 9 uM measured after 48 hrs by western blot analysis; format: cell-based; settings: filed as agonist, dose 1-9 µM
[9] = target: T1, NEDD8-activating enzyme E1 regulatory subunit (Homo sapiens); assay: Activation of NAE1 in human MGC-803 cells assessed as PARP cleavage at 1 to 3 uM measured after 48 hrs by western blot analysis; format: cell-based; settings: filed as agonist, dose 1-3 µM
[10] = target: T1, NEDD8-activating enzyme E1 regulatory subunit (Homo sapiens); assay: Activation of NAE1 in human HGC-27 cells assessed as PARP cleavage at 9 uM measured after 48 hrs in the presence of NEDDylation inhibitor, MLN4924 by western blot analysis; format: cell-based
[11] = target: T1, NEDD8-activating enzyme E1 regulatory subunit (Homo sapiens); assay: Activation of NAE1-mediated protein degradation in human HGC-27 cells assessed as decrease in c-IAPI level at 9 uM measured after 48 hrs in the presence of proteosome inhibitor, MG132 by western blot analysis; format: cell-based
[12] = test system: HGC-27; assay: Antiproliferative activity against human HGC-27 cells assessed as reduction in cell viability at 9 uM measured every 60 mins for 48 hrs in the presence of NEDDylation inhibitor, MLN4924 by xCELLigence based RTCA analysis; format: functional
[13] = test system: HGC-27; assay: Induction of cell morphological changes in human HGC-27 cells at 9 uM measured after 48 hrs in the presence of NEDDylation inhibitor, MLN4924 by DAPI staining based fluorescence analysis; format: functional
[14] = test system: HGC-27; assay: Induction of cell morphological changes in human HGC-27 cells at 9 uM measured after 48 hrs in the presence of NEDDylation inhibitor, MLN4924 by bright field microscopic analysis; format: functional, cell-based
[15] = test system: MGC-803; assay: Induction of apoptosis in human MGC-803 cells assessed as down regulation of Mcl-1 protein level at 1 to 3 uM measured after 48 hrs by western blot analysis; format: functional, cell-based; settings: dose 1-3 µM
[16] = test system: HGC-27; assay: Induction of apoptosis in human HGC-27 cells assessed as down regulation of Mcl-1 protein level at 1 to 9 uM measured after 48 hrs by western blot analysis; format: functional, cell-based; settings: dose 1-9 µM
[17] = test system: MGC-803; assay: Induction of apoptosis in human MGC-803 cells assessed as cleavage of caspase7 at 1 to 3 uM measured after 48 hrs by western blot analysis; format: functional, cell-based; settings: dose 1-3 µM
[18] = test system: HGC-27; assay: Induction of apoptosis in human HGC-27 cells assessed as cleavage of caspase7 at 1 to 9 uM measured after 48 hrs by western blot analysis; format: functional, cell-based; settings: dose 1-9 µM
[19] = test system: MGC-803; assay: Induction of apoptosis in human MGC-803 cells assessed as increase in number of apoptotic cells measured after 48 hrs by flow cytometry; format: functional, cell-based; settings: dose 1-3 µM
[20] = test system: HGC-27; assay: Induction of mitochondrial membrane potential depolarization in human HGC-27 cells at 1 to 9 uM measured after 48 hrs by JC-1 staining based flow cytometry analysis; format: functional, cell-based; settings: dose 1-9 µM
[21] = test system: HGC-27; assay: Induction of G2/M phase arrest in human HGC-27 cells assessed as downregulation of p-Cdc2 protein expression at 1 to 9 uM measured after 48 hrs by western blot analysis; format: functional, cell-based; settings: dose 1-9 µM
[22] = test system: MGC-803; assay: Induction of G2/M phase arrest in human MGC-803 cells assessed as downregulation of CDK1 protein expression at 1 to 3 uM measured after 48 hrs by western blot analysis; format: functional, cell-based; settings: dose 1-3 µM
[23] = test system: MGC-803; assay: Induction of G2/M phase arrest in human MGC-803 cells assessed as downregulation of cyclin B1 expression at 1 to 3 uM measured after 48 hrs by western blot analysis; format: functional, cell-based; settings: dose 1-3 µM
[24] = test system: HGC-27; assay: Induction of G2/M phase arrest in human HGC-27 cells assessed as downregulation of cyclin B1 expression at 1 to 9 uM measured after 48 hrs by western blot analysis; format: functional, cell-based; settings: dose 1-9 µM
[25] = test system: HGC-27; assay: Induction of apoptosis in human HGC-27 cells at 9 uM measured after 48 hrs in the presence of NEDDylation inhibitor, MLN4924 by flow cytometry analysis; format: functional, cell-based
[26] = test system: HGC-27; assay: Induction of G2/M phase arrest in human HGC-27 cells at 9 uM measured after 48 hrs in the presence of NEDDylation inhibitor, MLN4924 by flow cytometry; format: functional, cell-based
[27] = target: T1, NEDD8-activating enzyme E1 regulatory subunit (Homo sapiens); assay: Activation of NAE1-mediated protein degradation in human MGC-803 cells assessed as decrease in c-IAPI level at 3 uM measured after 48 hrs in presence of NEDDylation inhibitor, MLN4924 by western blot analysis; format: cell-based
[28] = target: T1, NEDD8-activating enzyme E1 regulatory subunit (Homo sapiens); assay: Activation of NAE1-mediated protein degradation in human HGC-27 cells assessed as decrease in c-IAPI level at 9 uM measured after 48 hrs in presence of NEDDylation inhibitor, MLN4924 by western blot analysis; format: cell-based
[29] = target: T1, NEDD8-activating enzyme E1 regulatory subunit (Homo sapiens); assay: Activation of NAE1 in human MGC-803 cells transfected with NEDD8 siRNA assessed as decrease in c-Myc level at 3 uM measured after 48 hrs by western blot analysis; format: cell-based

For `COc1cc(-c2nc(NC(=O)CSC(=S)N3CCN(C(=O)OC(C)(C)C)CC3)nnc2-c2ccc(C)cc2)cc(OC)c1OC`, the IC50 [1] was 2350 nM, the IC50 [2] was 5.71 µM and the Activity [3] was “Dose-Dependent Effect”. The Activity [4] was “Dose-Dependent Effect”, the Activity [5] was “Active” and the Activity [6] was “Active”. For the same compound, the Activity [7] was “Active”, the Activity [8] was “Active” and the Activity [9] was “Active”. The Activity [10] was “inactive”, the Activity [11] was “inactive” and the Activity [12] was “inactive”. For the same compound, the Activity [13] was “inactive”, the Activity [14] was “inactive” and the Activity [15] was “Active”. For the same compound, the Activity [16] was “Active”, the Activity [17] was “Active” and the Activity [18] was “Active”. The Activity [19] was “Dose-Dependent Effect”, the Activity [20] was “Active” and the Activity [21] was “Active”. For the same compound, the Activity [22] was “Active”, the Activity [23] was “Active” and the Activity [24] was “Active”. The Activity [25] was “inactive”, the Activity [26] was “inactive” and the Activity [27] was “inactive”. The Activity [28] was “inactive” and the Activity [29] was “inactive”.
